Data from patent US20170281676A1, “HIV-CURE” (Lupus Foundation of Gainesville, priority 2016, published 2017).
Where two headings read alike, the source gives them in different places.

Columns and labels:
HIV [1] = settings: by denaturing their molecules; cited from earlier work
[2] = tested on: Feline Immunodeficiency Virus (FIV); settings: by denaturing their molecules; cited from earlier work
[3] = most animal species; cited from earlier work
[4] = in vivo; cited from earlier work
[5] = monkeys, 100 ppm for 2 years; cited from earlier work
[6] = water, alcohol, and organic solvents; cited from earlier work
[7] = mice, cited from earlier work
[8] = humans exposed in workplace; cited from earlier work
[9] = human, in vivo
[10] = human, in vivo; remark: listed apart in the source
Description: (§1) A person was brought to the emergency room by ambulance. The inventor was called to intubate for respiratory support. […] They were intubated with propofol and admitted to ICU. […] During the ICU stay, they were maintained in coma with propofol infusions and some opioid analgesics and muscle paralyzers, intubated and mechanically ventilated. Fluids given were mostly Ringer's lactate and dextrose 5% in water. Due to lack of history, the ICU staff assumed they were a chronic alcoholic. […] So, they treated the patient with ethanol infusion, trying to decrease the level slowly over days.

HIV [11] = settings: HIV-positive person, 2 years after discharge; earlier viral load 60,000 copies per ml; never on antiretroviral medication
Description: as §1

[12] = tested on: bloodstream catheter-related infections; settings: injected preventively in central venous catheters; cited from earlier work
[13] = in vivo; cited from earlier work; remark: listed apart in the source
HIV virus [14] = settings: cited from earlier work
HIV-1 = settings: cited from earlier work
HIV virus [15] = settings: surfaces, 70% v/v ethanol, cited from earlier work
[16] = in vivo; cited from earlier work; remark: listed apart in the source
[17] = in vivo; cited from earlier work; remark: listed apart in the source
[18] = tested on: human macrophage hybridoma cell line and primary monocytes; settings: ethanol equivalent to 115, 345 and 690 mg/dl, 16 hours, then infected with HIV-1; cited from earlier work
[19] = tested on: peripheral blood lymphocytes; settings: concentrations 300-790 mg/dl; cited from earlier work
[20] = tested on: primary human brain microvascular endothelial cells; settings: concentrations equivalent to 79 mg/dl and 237 mg/dl; cited from earlier work

## OCCO [ethylene glycol]
HIV [1]
  inactivation of HIV in vitro: inactivate
[2]
  inactivation of FIV in vitro: inactivate

## CC(C)O [isopropanol]
HIV [1]
  inactivation of HIV in vitro: inactivate
[3]
  median lethal dose: 4000 mg/kg
[4]
  serum elimination half-life: 2.5 to 8 h
[2]
  inactivation of FIV in vitro: inactivate

## C1CO1 [ethylene oxide]
[5]
  mortality: did not have increased mortality
[6]
  solubility: dissolves easily
[7]; 100 ppm for 2 years
  mortality: did not have increased mortality
[7]; exposure to 400 ppm for 14 days
  mortality: no death
[7]; higher levels like 800 ppm
  mortality: deadly in 4 hours
[8]
  mortality: no increase in mortality

## CO [methanol]
HIV [1]
  inactivation of HIV in vitro: inactivate
[2]
  inactivation of FIV in vitro: inactivate

## CCO [ethanol]
HIV [1]
  inactivation of HIV in vitro: inactivate
[9]
  time to reach a level below 100 mg/dl: 16 to 20 h
[10]
  permanent organ damage: without causing any permanent organ damage
HIV [11]
  HIV viral load: undetectable
[12]
  risk of bloodstream catheter-related infections: decrease the risk
[13]
  factor between breath and blood concentrations: around 2300
  rise of serum concentration after loading dose: about 100 mg/dL
HIV virus [14]; human albumin and plasma products at 18,000 mg/dl and higher
  damage to the product: no damage to the product was caused
HIV virus [14]; human albumin and plasma products, and even higher
  concentration used for in vitro inactivation of HIV virus: ≥ 18,000 mg/dl
HIV-1; ethanol tested at 115, 345 and 690 mg/dl
  HIV-1 replication, another study: same results
HIV-1; human peripheral blood mononuclear cells, levels at the range of 400 mg/dl or less
  HIV-1 replication: increase the HIV-1 replication
HIV virus [15]; in some conditions, up to
  time of contact needed for the inactivation of HIV virus: up to 4 minutes
HIV virus [15]
  time of contact needed for the inactivation of HIV virus: 2 min
[16]
  blood level at usual starting of a comatose state: 400 mg/dL
[17]
  placental penetration: penetrates well the placenta
[2]
  inactivation of FIV in vitro: inactivate
[18]
  effects in the immunogenic tests of the cells: immunosuppressive effects
[19]
  HIV DNA in peripheral blood lymphocytes and their proliferation: increase
[20]
  apoptosis induced by HIV-1 proteins: strongly potentiate
